Read-outs that look alike come from different tables or passages of the source. Some results are limits rather than exact numbers.

The subject of data set [1] is human mononucleocytes (PBMC) stimulated with staphylococcal enterotoxin B (SEB). Description: cells. The format is cell-based.
In data set [2] the test system is HuT 78 cell adhesion to 5dICAM-Ig. Put plainly: Human T-cell adhesion assay (HuT 78). The format is cell-based. Conditions: HuT78, HuT 78 adhesion to 5dICAM-Ig. On the procedure:
The T-cell adhesion assay was performed using the human T-lymphoid cell line HuT 78 (ATCC TIB-161). Goat anti-HuIgG(Fc) was diluted to 2 μg/ml in PBS and 96-well plates were coated with 50 μl/well at 37° C. for 1 h. Plates were washed with PBS and blocked for 1 h at room temperature with 1% BSA in PBS. 5 domain ICAM-Ig was diluted to 100 ng/ml in PBS and 50 μl/well was added to the plates 0/N at 4° C. HuT 78 cells were centrifuged at 100 g and the cell pellet was treated with 5 mM EDTA for ˜5′ at 37° C. in a 5% CO2 incubator. Cells were washed in 0.14 M NaCl, 0.02 M Hepes, 0.2% glucose and 0.1 mM MnCl2 (assay buffer) and centrifuged. The cells were resuspended in assay buffer to 3.0×10^6 c/ml. Inhibitors were diluted in assay buffer to a 2× final concentration and pre-incubated with HuT78 cells for 30′ at room temperature. 100 μl/well of cells and inhibitors were added to the plates and incubated at room temperature for 1 h. 100 μl/well PBS was added and the plates were sealed and centrifuged inverted at 100 g for 5′. Unattached cells were flicked out of the plate and excess PBS was blotted on a paper towel. 60 μl/well p-nitrophenyl n-acetyl-β-D-glucosaminide (0.257 g to 100 ml citrate buffer) was added to the plate and incubated for 1.5 h at 37° C. The enzyme reaction was stopped with 90 μI/well 50 mM glycine/5 mM EDTA and read on a platereader at […]. HUT 78 cell adhesion to 5dICAM-Ig was measured using the p-nitrophenyl n-acetyl-.β-D-glucosaminide method of Landegren, U. (1984). J. Immunol. Methods 57, 379-388.

A short description of a further data set: Solubility. Type of data set: physicochemical.
A further data set addresses LFA-1 (Homo sapiens, UniProt P20701). Conditions: Lu et al. 2004; cited from earlier work.

LFA-1, sequence (P20701 26-1170): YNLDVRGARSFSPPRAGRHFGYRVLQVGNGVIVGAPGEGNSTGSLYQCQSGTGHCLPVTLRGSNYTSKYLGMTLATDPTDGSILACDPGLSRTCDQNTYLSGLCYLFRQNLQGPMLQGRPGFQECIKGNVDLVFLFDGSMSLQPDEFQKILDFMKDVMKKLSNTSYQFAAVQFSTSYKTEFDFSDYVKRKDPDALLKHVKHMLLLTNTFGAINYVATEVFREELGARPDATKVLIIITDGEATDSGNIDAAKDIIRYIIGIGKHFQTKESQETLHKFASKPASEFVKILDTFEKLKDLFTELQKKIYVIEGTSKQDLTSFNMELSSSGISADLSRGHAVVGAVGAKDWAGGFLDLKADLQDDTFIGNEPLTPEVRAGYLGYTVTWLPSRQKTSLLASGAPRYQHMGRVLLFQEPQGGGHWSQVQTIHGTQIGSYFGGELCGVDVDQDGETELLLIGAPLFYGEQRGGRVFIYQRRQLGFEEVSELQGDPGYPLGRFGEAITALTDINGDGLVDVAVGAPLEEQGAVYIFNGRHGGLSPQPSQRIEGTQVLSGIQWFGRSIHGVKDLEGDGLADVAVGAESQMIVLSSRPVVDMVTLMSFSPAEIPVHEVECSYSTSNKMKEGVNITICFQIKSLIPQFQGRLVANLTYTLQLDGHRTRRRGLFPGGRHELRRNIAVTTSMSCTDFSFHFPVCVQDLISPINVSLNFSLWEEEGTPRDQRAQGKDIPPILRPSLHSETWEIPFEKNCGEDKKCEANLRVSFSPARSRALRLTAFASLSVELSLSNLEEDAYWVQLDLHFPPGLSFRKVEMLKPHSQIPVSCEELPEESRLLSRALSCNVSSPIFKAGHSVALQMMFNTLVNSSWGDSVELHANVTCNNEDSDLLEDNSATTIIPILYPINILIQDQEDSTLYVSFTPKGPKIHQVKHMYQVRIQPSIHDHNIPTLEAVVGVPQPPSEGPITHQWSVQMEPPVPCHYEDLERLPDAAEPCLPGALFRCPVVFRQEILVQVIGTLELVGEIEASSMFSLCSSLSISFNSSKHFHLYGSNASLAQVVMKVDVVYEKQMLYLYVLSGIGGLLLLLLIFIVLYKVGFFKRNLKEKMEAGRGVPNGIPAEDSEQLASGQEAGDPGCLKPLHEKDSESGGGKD
LFA-1, sequence (P05107 23-769 partner): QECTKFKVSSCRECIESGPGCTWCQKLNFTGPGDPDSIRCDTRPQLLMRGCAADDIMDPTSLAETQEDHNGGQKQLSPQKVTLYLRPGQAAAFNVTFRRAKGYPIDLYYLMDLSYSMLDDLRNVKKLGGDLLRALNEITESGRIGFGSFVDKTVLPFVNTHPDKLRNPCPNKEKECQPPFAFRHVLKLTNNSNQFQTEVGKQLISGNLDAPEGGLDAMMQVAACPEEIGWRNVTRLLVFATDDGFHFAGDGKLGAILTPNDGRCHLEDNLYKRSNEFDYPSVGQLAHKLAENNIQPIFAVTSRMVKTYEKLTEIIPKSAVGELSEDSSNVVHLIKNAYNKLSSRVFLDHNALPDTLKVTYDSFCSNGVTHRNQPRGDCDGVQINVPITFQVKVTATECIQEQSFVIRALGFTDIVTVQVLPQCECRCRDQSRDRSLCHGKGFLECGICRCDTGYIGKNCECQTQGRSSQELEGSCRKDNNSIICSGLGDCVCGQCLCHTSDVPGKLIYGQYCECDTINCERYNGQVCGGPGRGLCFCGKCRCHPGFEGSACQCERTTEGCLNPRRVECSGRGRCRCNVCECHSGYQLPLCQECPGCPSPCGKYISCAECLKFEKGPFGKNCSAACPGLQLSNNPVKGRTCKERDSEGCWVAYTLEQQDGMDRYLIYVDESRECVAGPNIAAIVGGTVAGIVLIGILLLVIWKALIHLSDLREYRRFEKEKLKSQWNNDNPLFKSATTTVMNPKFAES

With `O=C(NC(Cc1cc(=O)[nH]c2ccccc12)C(=O)O)c1ccc(Cl)cc1` (stereo not shown) [Rebamipide], the EC50 in data set [1] (read-out: EC50 Cytokine Release GM-CSF), in data set [1] (read-out: EC50 Cytokine Release IFNγ), in data set [1] (read-out: EC50 Cytokine Release IL-1α), in data set [1] (read-out: EC50 Cytokine Release IL-1β), in data set [1] (read-out: EC50 Cytokine Release IL-2) and in data set [1] (read-out: EC50 Cytokine Release IL-3) was greater than 1000 µM throughout. Moreover, the EC50 in data set [1] (read-out: EC50 Cytokine Release IL-4), in data set [1] (read-out: EC50 Cytokine Release IL-5), in data set [1] (read-out: EC50 Cytokine Release IL-6), in data set [1] (read-out: EC50 Cytokine Release IL-10), in data set [1] (read-out: EC50 Cytokine Release IL-12p40) and in data set [1] (read-out: EC50 Cytokine Release IL-13) was greater than 1000 µM throughout. The EC50 in data set [1] (read-out: EC50 Cytokine Release IP-10), in data set [1] (read-out: EC50 Cytokine Release MCP-1), in data set [1] (read-out: EC50 Cytokine Release MIP-1α) and in data set [1] (read-out: EC50 Cytokine Release TNF-α) was greater than 1000 µM each time.

For the compound `O=C(NC[C@H](NC(=O)c1c(Cl)cc(CCC(O)c2cccc(O)c2)cc1Cl)C(=O)O)c1cccs1` (stereo partly shown) [Compound 32], in data set [2], the half-maximal effective concentration (EC50) is no more than 0.05 µM. This compound came in with a solubility in the data set “Solubility” greater than 50 mg/mL.

For `C[S+]([O-])c1cc(F)cc(C[C@H](NC(=O)c2c(Cl)cc3c(c2Cl)CCN(C(=O)c2ccc(Cl)cc2)C3)C(=O)O)c1` (stereo partly shown) [Compound 9], the EC50 in data set [2] is no more than 0.05 µM. The compound further came in with a solubility in the data set “Solubility” greater than 50 mg/mL.

`CS(=O)(=O)c1cccc(C[C@H](NC(=O)c2c(Cl)cc3c(c2Cl)CCN(C(=O)c2cc4ccccc4cn2)C3)C(=O)O)c1` [Compound 16]: in data set [2], the EC50 is no more than 0.05 µM. In “Solubility”, this compound returned a solubility greater than 100 mg/mL.

In data set [2], `CS(=O)(=O)c1cccc(C[C@H](NC(=O)c2c(Cl)cc3c(c2Cl)CCN(C(=O)c2ccc4cn[nH]c4c2)C3)C(=O)O)c1` [Compound 15] showed an EC50 of no more than 0.05 µM. Also, the solubility in “Solubility” is greater than 100 mg/mL.

Consider `CCc1c(C(=O)N[C@@H](CNC(=O)c2cccs2)C(=O)O)c2ccccc2n(CCCc2ccccc2)c1=O` [Compound 6], for which the EC50 in data set [2] was no more than 0.05 µM. This compound also yielded a solubility in “Solubility” greater than 100 mg/mL.

In data set [2], `O=C(NC[C@H](NC(=O)c1c(Cl)cc2c(c1Cl)CCN(C(=O)/C=C/c1ccco1)C2)C(=O)O)c1cccs1` [Compound 45] displayed an EC50 of no more than 0.05 µM. This compound also came in with a solubility in “Solubility” greater than 100 mg/mL.

As to `CS(=O)(=O)NCCC[C@H](NC(=O)c1c(Cl)cc2c(c1Cl)CCN(C(=O)c1ccc3ccoc3c1)C2)C(=O)O` [Compound 44], in data set [2], the EC50 was no more than 0.05 µM. In addition, the solubility in “Solubility” was greater than 100 mg/mL.

In data set [2], `O=C(NC[C@H](NC(=O)c1c(Cl)cc2c(c1Cl)CCN(C(=O)Nc1cccc(Cl)c1)C2)C(=O)O)c1cccs1` [Compound 21] gave an EC50 of no more than 0.05 µM. Besides, the solubility in the data set “Solubility” is greater than 100 mg/mL.

As to `Cc1cc2c(=O)n(Cc3ccccc3)ncc2cc1C(=O)N[C@@H](CNC(=O)c1cccs1)C(=O)O` [Compound 29], in data set [2], the 50% effective concentration (EC50) is no more than 3 µM. The compound further showed a solubility in “Solubility” greater than 50 mg/mL.

With `O=C(NC[C@H](NC(=O)c1c(Cl)cc2c(c1Cl)CCN(C(=O)c1ccc3ccoc3c1)C2)C(=O)O)c1cccc(F)c1` [Compound 31], in data set [2], the EC50 is no more than 0.05 µM. The same compound gave a solubility in the data set “Solubility” greater than 50 mg/mL.

For the compound “efalizumab: antibody directed against LFA-1”, the “Mode of antagonism of LFA-1” value with LFA-1 was “directly competitive antagonist of LFA-1”.

In general, EC50 refers to the midpoint of the concentration-response curve. In general, solubility refers to how much of the substance goes into solution per volume. Read a low solubility as a poorly soluble substance.

Source of the values: patent US10960087B2, “Compositions and methods for treatment of diabetic retinopathy” (NOVARTIS AG, priority 2007, dated 2021).
